We go through 2 compounds from patent publication US20240085425A1, “BIOMARKER AND APPLICATION THEREOF” (ADLAI NORTYE BIOPHARMA CO., LTD., priority 2022, published 2024).

Structures are written as SMILES. Residues, ends and D or L forms follow the SMILES beside them. *: point of attachment. Cbz = O=C(OCc1ccccc1)*

What all share (format): cell-based
Assay [1] concerns non-phosphorylated β-catenin. Description: Western blot of non-phosphorylated β-catenin content in DU4475 cells. To be noted: overnight, read-out: Non-phosphorylated β-catenin content inhibition IC50. An excerpt: (§1) The Wnt signaling pathway is a key pathway for abnormal tumor growth. In colon cancer, liver cancer, pancreatic cancer and other cancers, a large number of patients have abnormal activation of the Wnt signaling pathway. The Wnt signaling pathway depends on the fine balance of β-catenin protein level. When Wnt signaling is not activated, β-catenin is phosphorylated by CK1 and APC/Axin/GSK-3β complexes, and the β-catenin protein is kept at a low level through ubiquitin-dependent proteasome degradation. When the Wnt signaling pathway is activated, β-catenin maintains a stable state of non-phosphorylation, and non-phosphorylated β-catenin can be transported into the nucleus through Rac1 and other factors, and plays a transcriptional regulatory role by binding to LEF/TCF transcription factors in the nucleus, activates downstream target genes such as C-myc and Cyclin D1, and promotes cell proliferation. Therefore, abnormal activation of the Wnt signaling pathway in tumor cells will lead to abnormal proliferation of tumors. […]
(§2) Add 500 μL of the compound with the highest concentration shown in FIG. 1 to each well of the 6-well cell culture plate, and make a 10-fold gradient dilution of the compound concentration. […] Load the protein sample directly to the SDS-PAGE gel for electrophoresis separation, transfer the protein on the SDS-PAGE gel to the PVDF membrane; after the transfer was completed, the protein was blocked by Western blocking solution, then Rabbit anti-β-catenin non-phospho S37/After T41 (ab278503) was added and the protein was incubated at room temperature for one hour and washed, the content of non-phosphorylated β-catenin was detected by incubation with Goat Anti-Rabbit IgG H&L (HRP) (ab6721). […]
A general note: In western blotting, separated proteins are transferred to a membrane and probed.

Assay [2] relates to non-phosphorylated β-catenin. Nature of the assay: Western blot of non-phosphorylated β-catenin content in Colo205 cells. The text has this: The Wnt signaling pathway is a key pathway for abnormal tumor growth. In colon cancer, liver cancer, pancreatic cancer and other cancers, a large number of patients have abnormal activation of the Wnt signaling pathway. The Wnt signaling pathway depends on the fine balance of β-catenin protein level. When Wnt signaling is not activated, β-catenin is phosphorylated by CK1 and APC/Axin/GSK-3β complexes, and the β-catenin protein is kept at a low level through ubiquitin-dependent proteasome degradation. When the Wnt signaling pathway is activated, β-catenin maintains a stable state of non-phosphorylation, and non-phosphorylated β-catenin can be transported into the nucleus through Rac1 and other factors, and plays a transcriptional regulatory role by binding to LEF/TCF transcription factors in the nucleus, activates downstream target genes such as C-myc and Cyclin D1, and promotes cell proliferation. Therefore, abnormal activation of the Wnt signaling pathway in tumor cells will lead to abnormal proliferation of tumors. In order to explore the inhibitory mechanism of the compound on the proliferation of tumor cell lines, the compound AN10250399, AN10250421 or AN10250484 was used to treat sensitive cells Colo205, DU4475 and HepG2, and Western blot was used to detect the content of non-phosphorylated β-catenin in the Wnt pathway to clarify the effect of the compound on content of the non-phosphorylated β-catenin.
Add 500 μL of the compound with the highest concentration shown in FIG. 1 to each well of the 6-well cell culture plate, and make a 10-fold gradient dilution of the compound concentration. Then 500 μL of 10^6 Colo205, DU4475 and HepG2 or 500 μL of medium were inoculated into each well, and corresponding solvent treatment was performed simultaneously as negative control wells. The cells were placed in a 5% CO2 cell incubator, cultured overnight at 37° C. The culture medium was removed, washed once with PBS, 200 μL of RIPA buffer containing protease inhibitors was added to each well, and the protein lysate was collected after lysing on ice for 20 min. Add an appropriate amount of concentrated SDS-PAGE protein loading buffer to the collected protein lysate samples, and heat at 100° C. or in a boiling water bath for 3-5 minutes to fully denature the protein. Load the protein sample directly to the SDS-PAGE gel for electrophoresis separation, transfer the protein on the SDS-PAGE gel to the PVDF membrane; after the transfer was completed, the protein was blocked by Western blocking solution, then Rabbit anti-β-catenin non-phospho S37/After T41 (ab278503) was added and the protein was incubated at room temperature for one hour and washed, the content of non-phosphorylated β-catenin was detected by incubation with Goat Anti-Rabbit IgG H&L (HRP) (ab6721). As a control, glyceraldehyde-3-phosphate dehydrogenase (GAPDH) was used as an internal standard protein

The test system of assay [3] is non-phosphorylated β-catenin. Nature of the assay: Western blot of non-phosphorylated β-catenin content in HepG2 cells. To be noted: overnight, read-out: Non-phosphorylated β-catenin content inhibition IC50.
Description: as §1, §2

Assay [4] deals with non-phosphorylated β-catenin. Description: Non-phosphorylated β-catenin content in Colo205-LUC-TCF/LEF cells, compound plus MG132. To be noted: 200 nM compound plus 2 μM MG132, 4 hours, FIG. 2. The protocol:
Add 500 ul medium containing 200 nM compound plus 2 μM MG132 or 200 nM compound plus control solvent to each well of a 6-well cell culture plate, then add 500 ul containing 10^6 Colo205-LUC-TCF/LEF cells respectively, and incubate for 4 hours Finally, the protein was collected to detect the content of non-phosphorylated β-catenin.

On to `Cc1nc(NCc2ccc(Oc3cnc(C(F)(F)F)nc3)nc2)nc2c1NC(=O)[C@H](C)N2C` [AN10250421], for which the IC50 in assay [1] was 2.2 nM; in assay [2] (overnight, Western blot, read-out: Non-phosphorylated β-catenin content inhibition IC50), 10 nM; in assay [3], 51.6 nM. Besides, the “Effect on content of non-phosphorylated β-catenin (active β-catenin), in words” value in assay [2] (FIG. 1) is “decrease the content of non-phosphorylated β-catenin”.
On to `CC(C)C[C@@H](C=O)NC(=O)[C@H](CC(C)C)NC(=O)[C@H](CC(C)C)NC(=O)OCc1ccccc1` [MG132] (Cbz-Leu-Leu-Leu-aldehyde), for which the “Effect of MG132 on the reduction of non-phosphorylated β-catenin content caused by AN10250484” value in assay [4] is reported as “reverses the reduction of the content of non-phosphorylated β-catenin”.

Usually IC50 stands for the concentration that inhibits the measured activity by half.
